Experimental data from patent US20220372014A1, “NEUROPROTECTIVE COMPOUNDS AND METHODS OF USE THEREOF” (The Johns Hopkins University, priority 2019, published 2022).

How the values were obtained:
[1] = system: HeLa cells or neuronal cells; test: Cell death assay of Example 3 (MNNG, alamarBlue; protection against parthanatos, Table 4); type: cell-based; conditions: 1 μM test compound; for (%) inhibition of cell death: MNNG-induced cell death, alamarBlue
Summary of the method: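 HeLa or neuronal cells (1×10^4/well) were pretreated 1 h at 37° C with 1 μM compound, exposed to MNNG for 15 min, washed, then re-incubated 18 h with 1 μM compound. Viability was read by alamarBlue fluorescence (ex 560/em 590 nm). Cell death was expressed relative to control wells.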

MIF = target: T1, MIF (Homo sapiens, UniProt P14174); test: Nuclease assay of Example 3 (MIF inhibitory activity, Table 4); type: biochemical; set-up: (%) inhibition of MIF nuclease activity: concentration or dose not given beside the values; conditions: for (%) inhibition of MIF nuclease activity: nuclease assay of Example 3
T1 sequence (P14174 1-115): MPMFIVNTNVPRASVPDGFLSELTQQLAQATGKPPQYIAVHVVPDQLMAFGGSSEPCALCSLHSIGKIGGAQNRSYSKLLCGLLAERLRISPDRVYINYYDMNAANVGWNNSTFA
Summary of the method: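 Human genomic DNA (200 ng), pcDNA (200 ng) or PS^30-type substrates (1 μM) were incubated with MIF (0.25-8 μM final) in 10 mM Tris-HCl pH 7.0, 10 mM MgCl2, 1 mM DTT at 37 °C for 1 h (pcDNA, small substrates) or 4 h (genomic DNA). Cleavage was assessed by agarose or PAGE electrophoresis with EtBr staining and chemiluminescent detection of biotin-labelled DNA.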

SMILES	(%) inhibition of cell death [1] [%]	(%) inhibition of MIF nuclease activity (MIF) [%]	protection against parthanatos (cell death) [1]	MIF nuclease activity (MIF)
COc1ccc(CC[C@H]2OC(=O)[C@@H]3CCCCN3C(=O)C(=O)C(C)(C)COC(=O)C=CCCN(C)C(=O)[C@H](CC(C)C)NC(=O)[C@H](Cc3ccccc3)N(C)C(=O)[C@@H](C)NC(=O)CN(C)C(=O)COc3cccc2c3)cc1OC [compound 66]	71.4	67.0	–	–
COCC[C@@H]1NC(=O)[C@H](COC(C)(C)C)N(C)C(=O)[C@@H](CC(C)C)NC(=O)CN(C)C(=O)COc2cccc(c2)[C@@H](CCc2ccc(OC)c(OC)c2)OC(=O)[C@@H]2CCCCN2C(=O)C(=O)C(C)(C)COC(=O)C=CCCN(C)C1=O [compound 5]	41.7	10.7	–	–
COc1ccc(CC[C@H]2OC(=O)[C@@H]3CCCCN3C(=O)C(=O)C(C)(C)COC(=O)C=CCCN(C)C(=O)[C@H](Cc3ccc4ccccc4c3)NC(=O)[C@H](C(C)C)N(C)C(=O)[C@@H](Cc3ccccc3)NC(=O)[C@H](CC(C)C)N(C)C(=O)CCC(=O)Nc3cccc2c3)cc1OC [compound 88]	52.7	21.3	–	–
COc1ccc(OC)c(OC)c1CC[C@H]1OC(=O)[C@@H]2CCCCN2C(=O)C(=O)C(C)(C)COC(=O)C=CCCN(C)C(=O)[C@@H]2CCCN2C(=O)[C@H](COC(C)(C)C)N(C)C(=O)C(c2ccccc2)NC(=O)[C@H](C)N(C)C(=O)COc2cccc1c2 (stereo partly drawn) [compound 123]	82.4	−5.1	protect against parthanatos	do not inhibit MIF nuclease activity
COc1ccc(CC[C@H]2OC(=O)[C@@H]3CCCCN3C(=O)C(=O)C(C)(C)COC(=O)C=CCCN(C)C(=O)[C@H](Cc3ccc(F)cc3)NC(=O)[C@H](COC(C)(C)C)N(C)C(=O)C(c3ccccc3)NC(=O)CN(C)C(=O)COc3cccc2c3)cc1OC (stereo partly drawn) [compound 40]	53.8	37.4	–	–
COc1ccc(CC[C@H]2OC(=O)[C@@H]3CCCCN3C(=O)C(=O)C(C)(C)COC(=O)C=CCCN(C)C(=O)C(c3ccccc3)NC(=O)[C@H](COC(C)(C)C)N(C)C(=O)[C@H](Cc3ccc4ccccc4c3)NC(=O)[C@H](C)N(C)C(=O)COc3cccc2c3)cc1OC (stereo partly drawn) [compound 30]	51.5	18.6	–	–
COc1ccc(CC[C@H]2OC(=O)[C@@H]3CCCCN3C(=O)C(=O)C(C)(C)COC(=O)C=CCCN(C)C(=O)[C@H](Cc3ccc(F)cc3)NC(=O)[C@H](C(C)C)N(C)C(=O)[C@@H](Cc3ccccc3)NC(=O)[C@H](CC(C)C)N(C)C(=O)CCC(=O)Nc3cccc2c3)cc1OC [compound 85]	49.4	10.7	–	–
COc1cc(OC)c(OC)cc1CC[C@H]1OC(=O)[C@@H]2CCCCN2C(=O)C(=O)C(C)(C)COC(=O)C=CCCN(C)C(=O)[C@@H]2CCCN2C(=O)[C@H](COC(C)(C)C)N(C)C(=O)C(c2ccccc2)NC(=O)[C@H](C)N(C)C(=O)COc2cccc1c2 (stereo partly drawn) [compound 122]	64.3	10.7	–	–
COc1ccc(CC[C@H]2OC(=O)[C@@H]3CCCCN3C(=O)C(=O)C(C)(C)COC(=O)C=CCCN(C)C(=O)[C@H](C)NC(=O)[C@H](COC(C)(C)C)N(C)C(=O)C(c3ccccc3)NC(=O)[C@H](C)N(C)C(=O)COc3cccc2c3)cc1OC (stereo partly drawn) [compound 47]	54.2	52.3	–	–
COc1ccc(CC[C@H]2OC(=O)[C@@H]3CCCCN3C(=O)C(=O)C(C)(C)COC(=O)C=CCCN(C)C(=O)[C@H](C)NC(=O)[C@H](Cc3ccccc3)N(C)C(=O)[C@@H](C)NC(=O)CN(C)C(=O)COc3cccc2c3)cc1OC [compound 62]	53.7	13.1	–	–
COc1ccc(CC[C@H]2OC(=O)[C@@H]3CCCCN3C(=O)C(=O)C(C)(C)COC(=O)C=CCCN(C)C(=O)[C@H](C(C)C)NC(=O)[C@H](COC(C)(C)C)N(C)C(=O)C(c3ccccc3)NC(=O)CN(C)C(=O)COc3cccc2c3)cc1OC (stereo partly drawn) [compound 44]	52.2	30.0	–	–
